Source: patent US12384769B2, “Heteroaryl-substituted aminoalkyl azole compounds as pesticides” (Elanco Animal Health GmbH, priority 2019, dated 2025)

What was measured:
Type in all cases: in vivo
[1] = system: Rhipicephalus microplus (strain Parkhurst, resistant against synthetic pyrethroids); assay: Rhipicephalus microplus in-vitro contact test, larval cattle tick (BOOPMI Contact); settings: 5 μg/cm^2 (=500 g/ha), after 48 hours, read-out: activity (efficacy, larvae dead or moribund)
Outline: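 Efficacy, expressed as percentage of larvae dead or moribund, is judged by negative geotactic behaviour 48 h after larvae (20-50 per tube) enter tubes whose inner walls carry a dried acetone film of compound, 5 μg/cm² at 900 ppm. Incubation: horizontal, 27 °C, 85% relative humidity.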

Nilaparvata lugens = Nilaparvata lugens spray test; settings: 96 h, rice plants, after 4 days
Protocol: Nilaparvata lugens—Spray Test
Solvent: 78.0 parts by weight of acetone • • 1.5 parts by weight of dimethylformamide
Emulsifier: alkylarylpolyglycol ether
To produce a suitable preparation of active compound, 1 part by weight of active compound is mixed with the stated amount of solvents and is diluted with water, containing an emulsifier concentration of 1000 ppm, to the desired concentration. Further test concentrations are prepared by dilution with emulsifier containing water.
Rice plants (Oryza sativa) are sprayed with a preparation of the active ingredient of the desired concentration and the plants are infested with the brown planthopper (Nilaparvata lugens).
After 4 days mortality in % is determined. 100% means all planthoppers have been killed and 0% means none of the planthoppers have been killed.

Ctenocephalides felis = Ctenocephalides felis oral test (CTECFE); settings: 48 h, 100 ppm in cattle blood, after 2 days
Outline: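 About 20 adult unfed fleas fed through parafilm on cattle blood held at 37° C and dosed with compound from a DMSO concentrate; flea chamber at room temperature. Percent mortality scored after 2 days.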

Diabrotica balteata = Diabrotica balteata spray test; settings: 168 h, 500 g/ha (=160 μg/well), wheat seeds, after 7 days, read-out: activity (efficacy, seedlings grown)
Outline: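 Efficacy was read 7 days after infesting each unit with 10–20 banded cucumber beetle larvae, as % of seedlings growing like untreated, uninfested controls. Before infestation, wheat seeds germinated 1 day on agar (5 per well) were sprayed with the active ingredient. The active was formulated in acetone/DMF and diluted in water containing emulsifier.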

Structure (SMILES)	pest or weed control at 5 µg/cm2 [1] [%]	mortality at 500 g/ha (Nilaparvata lugens) [%]	mortality at 100 ppm (Ctenocephalides felis) [%]	pest or weed control at 160 µg/disc, 500 g/ha (Diabrotica balteata) [%]
Cc1cc2oc(N[C@@H](C)c3ncnn3-c3ncccn3)nc2cc1Br [Example I-007]	100	100	100	
C[C@H](Nc1nc2ccccc2s1)c1ncnn1-c1ncccn1 [Example I-009]		100		80
